# Earlier results in US20140230256A1, “HAND HELD DEVICE” (The Gillette Company, priority 2013, published 2014).
# Details: organism not stated
compound,measurement,value
"CCCCCCCCn1sc(Cl)c(Cl)c1=O [4,5-dichloro-2-n-octyl-4-isothiazolin-3-one]",MIC,about 50 ppm
